Each structure is given as a SMILES string.

The target in this test is T1, protein phosphatase-1 catalytic subunit (PP1c) (Oryctolagus cuniculus, UniProt P62139).
T1 construct: gene PPP1CA; catalytic subunit
Kind of test: colorimetric pNPP phosphatase inhibition assay, absorbance at […] nm, PP1 […]. Format: biochemical.

T1 sequence (P62139 2-330): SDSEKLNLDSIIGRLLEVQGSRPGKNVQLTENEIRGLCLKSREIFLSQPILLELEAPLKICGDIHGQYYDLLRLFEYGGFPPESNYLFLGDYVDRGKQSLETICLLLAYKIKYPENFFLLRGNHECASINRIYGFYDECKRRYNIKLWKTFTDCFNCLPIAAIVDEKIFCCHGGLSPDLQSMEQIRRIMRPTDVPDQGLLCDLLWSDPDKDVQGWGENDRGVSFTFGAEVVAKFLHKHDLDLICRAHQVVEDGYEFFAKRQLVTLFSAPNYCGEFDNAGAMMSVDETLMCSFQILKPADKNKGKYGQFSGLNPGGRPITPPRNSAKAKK

A word on the IC50: it is the concentration that gives 50% inhibition. A lower IC50 goes with higher potency. In turn, `C=C1[C@@H](O)[C@@H]2O[C@]3(CC[C@H](/C=C/[C@@H](C)[C@@H]4CC(C)=C[C@@]5(O[C@H](C[C@@](C)(O)C(=O)O)CC[C@H]5O)O4)O3)CC[C@H]2O[C@@H]1[C@@H](O)C[C@H](C)[C@H]1O[C@@]2(CCCCO2)CC[C@H]1C` [OA, okadaic acid] yielded an IC50 of 1180 nM.
